Publication PMC3466118 (Journal of medicinal chemistry, 2011)

Experiments:
[1] = tested on: retinoic acid differentiated SH-SY5Y human neuroblastoma cells treated with 30; assay: Neuroprotection assay, cells stressed with compound 30; format: cell-based; conditions: for Neuroprotective effect: differentiated SH-SY5Y cells stressed with 100 μM of 30, 24 h, XTT
[2] = tested on: retinoic acid-differentiated SH-SY5Y neuroblastoma cells; assay: Cytotoxicity in unstressed differentiated SH-SY5Y cells; format: cell-based, human; conditions: 0.5–50 μM, 24 h, XTT
[3] = tested on: HepG2, Hela and SH-SY5Y carcinoma cell lines; assay: Antiproliferative activity across the three carcinoma cell lines; format: cell-based; conditions: Homo sapiens, read-out: EC50–48 h, span over the three cell lines
[4] = tested on: acetylation of p53 in HepG2 cells; assay: Western blot, acetylation of p53 in HepG2 cells; format: cell-based, human; conditions: HepG2 total cell extracts
[5] = tested on: cleavage of caspase 3 in HepG2 cells; assay: Western blot, activation/cleavage of caspase 3 in HepG2 cells; format: cell-based, human
[6] = tested on: acetylation of histone H4 in retinoic acid-differentiated SH-SY5Y cells; assay: Acetylation of H4 in differentiated SH-SY5Y cells; format: cell-based, human; conditions: 1 μM, also in cells stressed with compound 30
[7] = molecular target: recombinant human HDAC3/NCoR2 (Homo sapiens, UniProt O15379); assay: HDAC3 inhibition, fluorescent substrate Boc-L-Lys
recombinant human HDAC8 [8] = molecular target: T1, recombinant human HDAC8 (Homo sapiens, UniProt Q9BY41); assay: HDAC8 inhibition, fluorescent substrate Fluor de Lys
T1 sequence (Q9BY41 1-377): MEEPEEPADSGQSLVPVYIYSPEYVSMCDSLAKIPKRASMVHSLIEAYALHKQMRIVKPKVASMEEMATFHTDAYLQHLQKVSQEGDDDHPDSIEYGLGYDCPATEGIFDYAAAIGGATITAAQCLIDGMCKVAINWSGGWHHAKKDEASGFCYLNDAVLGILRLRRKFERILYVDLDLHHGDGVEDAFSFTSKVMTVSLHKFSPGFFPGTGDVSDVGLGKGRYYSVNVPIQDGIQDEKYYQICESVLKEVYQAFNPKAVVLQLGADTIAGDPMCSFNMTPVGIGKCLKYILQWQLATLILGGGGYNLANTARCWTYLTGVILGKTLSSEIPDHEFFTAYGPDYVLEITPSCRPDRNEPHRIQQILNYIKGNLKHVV

recombinant human HDAC8 [9] = molecular target: T1, recombinant human HDAC8; conditions: cited from earlier work

recombinant human HDAC3/NCoR2, sequence (O15379 whole entry): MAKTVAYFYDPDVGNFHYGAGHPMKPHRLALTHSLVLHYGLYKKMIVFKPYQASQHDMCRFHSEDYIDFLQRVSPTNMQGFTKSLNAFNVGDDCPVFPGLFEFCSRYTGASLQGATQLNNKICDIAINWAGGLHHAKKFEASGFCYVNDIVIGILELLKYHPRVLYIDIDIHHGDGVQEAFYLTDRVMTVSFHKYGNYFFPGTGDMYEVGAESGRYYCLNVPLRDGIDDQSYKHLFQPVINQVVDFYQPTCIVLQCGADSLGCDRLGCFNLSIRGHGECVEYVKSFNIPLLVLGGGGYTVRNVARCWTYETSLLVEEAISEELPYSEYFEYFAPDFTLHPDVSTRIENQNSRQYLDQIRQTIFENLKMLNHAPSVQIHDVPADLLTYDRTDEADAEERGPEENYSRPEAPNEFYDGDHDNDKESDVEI
recombinant human HDAC3/NCoR2, sequence (Q9Y618 395-489 partner limits assumed): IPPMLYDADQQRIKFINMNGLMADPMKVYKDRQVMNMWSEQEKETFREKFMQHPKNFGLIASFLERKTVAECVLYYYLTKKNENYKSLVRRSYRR

Compound	Neuroprotective effect [1]	Cytotoxicity to differentiated neuroblastoma cells [2]	EC50 [3]	Hyperacetylation of histone H4 [6]	further results
O=C(CCCCCCC(=O)Nc1cnn(Cc2ccccc2)c1)NO [3a, Octanedioic acid (1-benzyl-1H-pyrazol-4-yl)amide hydroxyamide]	non-neuroprotective	not toxic to the cells	10 to 23 µM		
[N-]=[N+]=NCc1cc(N=[N+]=[N-])cc(C(=O)Nc2ccc(-c3cc(C(=O)NCCCCCCC(=O)NO)no3)cc2)c1 [2b, 5-[4-(3-Azido-5-azidomethylbenzoylamino)phenyl]isoxazole-3-carboxylic acid (6-hydroxycarbamoylhexyl)amide]	protect cells from stress induced by compound 30 at low micromolar concentrations		11 to 32 µM	induce hyperacetylation of histone H4	Acetylation of p53 [4]: neither SAHA nor 2b induced additional time and dose-dependent hyperacetylation of p53; Cleavage of caspase 3 [5]: induced cleavage of caspase 3 by 14 h with maximum activation at 24 h
[N-]=[N+]=Nc1ccc(Cn2cc(NC(=O)CCCCCCC(=O)NO)cn2)cc1 [3c, Octanedioic acid [1-(4-azidobenzyl)-1H-pyrazol-4-yl]amide hydroxyamide]	non-neuroprotective	not toxic to the cells	10 to 23 µM		Fold better potency than 3a, HDAC3 ([7]; compared with 3a): 2.0 fold; Fold better potency than 3a, HDAC8 (recombinant human HDAC8 [8]; compared with 3a): 2.7 fold
[N-]=[N+]=NCc1cc(Cn2cc(NC(=O)CCCCCCC(=O)NO)cn2)cc(N=[N+]=[N-])c1 [3f, Octanedioic acid [1-(3-azido-5-azidomethylbenzyl)-1H-pyrazol-4-yl]amide hydroxyamide]	protect cells from stress induced by compound 30 at low micromolar concentrations	subtle toxicity at 20 μM	24 to 36 µM	induce hyperacetylation of histone H4	Cell survival relative to vehicle ([1]; 0.5 and 1 μM, differentiated SH-SY5Y cells stressed with 100 μM of 30): more than doubles the amount of cell survival; IC50 ratio compound/SAHA, HDAC3 [7]: ND ^e 4.74; Fold more active towards HDAC8 than HDAC3 (selectivity) (recombinant human HDAC8 [8]; HDAC8 vs HDAC3): 8 fold
[N-]=[N+]=Nc1ccc(-c2cc(C(=O)NCCCCCCC(=O)NO)no2)cc1 [2a, 5-(4-Azidophenyl)isoxazole-3-carboxylic acid(6-hydroxycarbamoylhexyl)amide]	protect cells from stress induced by compound 30 at low micromolar concentrations	not overly cytotoxic		induce hyperacetylation of histone H4	
[N-]=[N+]=NCc1cc(COc2ccc(NC(=O)CCCCCCC(=O)NO)cc2)cc(N=[N+]=[N-])c1 [compound 1]					Fold decrease in HDAC8 inhibitory activity compared to SAHA (recombinant human HDAC8 [9]): 17 fold
